# Results published in ChEMBL document CHEMBL5625205, “3-Methoxy-2-phenylimidazo[1,2-b]pyridazines highly active against Mycobacterium tuberculosis and Mycobacterium marinum” (Eur J Med Chem, 2023).
# Key:
# Mycobacterium marinum = assay: Antimycobacterial activity against Mycobacterium marinum assessed as inhibition of bacterial growth measured for 5 days by luminometer; type: functional; settings: 120 h, time 5 day
# [1] = system: Mycobacterium tuberculosis; assay: Antimycobacterial activity against Mycobacterium tuberculosis H37Ra assessed as inhibition of bacterial growth measured for 5 days by luminometer; type: functional; settings: 120 h, time 5 day
SMILES,MIC90 (Mycobacterium marinum) [µM],MIC90 [1] [µM]
COc1c(-c2ccc(F)cc2)nc2ccc(N(C)Cc3ccccc3)nn12,1.38,1.38
COCCOc1c(-c2ccccc2)nc2ccc(SCc3ccccc3)nn12,63.9,255
COc1cccc(CSc2ccc3nc(-c4ccc(F)cc4)cn3n2)c1,2.74,27.4
CN(Cc1ccccc1)c1ccc2nc(-c3ccccc3)c(O)n2n1,> 303,303
COc1c(-c2ccccc2)nc2ccc(SCc3cc(C)on3)nn12,284,284
COc1c(C)nc2ccc(Oc3ccccc3)nn12,,> 117
COc1c(-c2ccccc2)nc2ccc(SCc3ccccc3Cl)nn12,,> 260
COc1cccc(CNc2ccc3nc(-c4ccccc4)c(OC)n3n2)c1,6.94,6.94
COc1c(-c2cccc([N+](=O)[O-])c2)nc2ccc(N(C)Cc3ccccc3)nn12,> 250,> 250
Cc1c(-c2ccccc2)nc2ccc(OCc3ccccc3)nn12,317,317
COc1cccc(CNc2ccc3nc(-c4ccc(F)cc4)c(OC)n3n2)c1,13.2,6.61
COc1c(-c2ccc(C(F)(F)F)cc2)nc2ccc(N(C)Cc3ccccc3)nn12,12.1,6.06
Oc1ccccc1-c1nc2ccc(SCc3ccccc3)nn2c1Br,243,243
COc1ccc(CSc2ccc3nc(-c4ccc(F)cc4)c(OC)n3n2)cc1,12.6,6.32
COc1c(-c2ccccc2)nc2ccc(Cl)nn12,,385
c1ccc(COc2ccc3nc(-c4ccccc4)cn3n2)cc1,> 330,332
COc1c(-c2ccccc2)nc2ccc(SCc3ccsc3)nn12,1.41,0.7
Ic1c(-c2ccccc2)nc2ccc(OCc3ccccc3)nn12,> 230,> 230
CN(Cc1ccccc1)c1ccc2nc(-c3ccc(F)cc3F)c(O)n2n1,> 273,273

SMILES,MIC90 (Mycobacterium marinum) [µM],MIC90 [1] [µM]
CN(Cc1ccccc1)c1ccc2nc(-c3ccccc3F)c(O)n2n1,287,144
COc1ccc(CSc2ccc3nc(-c4ccccc4)c(OC)n3n2)cc1,5.3,5.3
O=c1oc2ccccc2c2nc3ccc(SCc4ccccc4)nn3c12,278,278
COc1cccc(CSc2ccc3nc(-c4ccc(F)cc4F)c(OC)n3n2)c1,1.21,15.1
CCOc1c(-c2ccccc2)nc2ccc(SCc3cccc(OC)c3)nn12,1.28,2.55
COc1cccc(CS(=O)(=O)c2ccc3nc(-c4ccc(F)cc4F)c(OC)n3n2)c1,225,225
COc1cccc(CSc2ccc3nc(-c4cccc([N+](=O)[O-])c4)c(OC)n3n2)c1,> 230,> 230
Brc1c(-c2ccccc2)nc2ccc(OCc3ccccc3)nn12,> 260,> 260
N#Cc1c(-c2ccccc2)nc2ccc(OCc3ccccc3)nn12,> 300,> 300
COc1cccc(CNc2ccc3nc(-c4ccc(C(F)(F)F)cc4)c(OC)n3n2)c1,23.3,11.7
COc1cccc(COc2ccc3nc(-c4ccc(C(F)(F)F)cc4)c(OC)n3n2)c1,> 230,> 230
COc1cccc(CSc2ccc3nc(-c4ccc(F)cc4)c(CN(C)C)n3n2)c1,47.3,23.7
COc1cccc(CSc2ccc3nc(-c4ccc(OC)c(OC)c4)c(OC)n3n2)c1,> 220,> 220
COc1cccc(CSc2ccc3nc(-c4ccc(F)cc4F)c(CN4CCOCC4)n3n2)c1,207,207
COc1c(Cc2ccccc2)nc2ccc(SCc3cccc([N+](=O)[O-])c3)nn12,24.6,> 245
COc1cccc(CNc2ccc3nc(-c4cccc([N+](=O)[O-])c4)c(OC)n3n2)c1,> 240,> 240
COc1cccc(CSc2ccc3nc(-c4ccc(Br)cc4)c(OC)n3n2)c1,11,11
COc1c(-c2ccccc2)nc2ccc(SCc3ccccc3)nn12,0.72,1.44
COc1c(-c2cccc(N)c2)nc2ccc(N(C)Cc3ccccc3)nn12,13.9,34.8
